Measurements reported in patent publication US20150344466A1 (SUMITOMO CHEMICAL COMPANY, LIMITED, priority 2013, published 2015).

How the values were obtained:
Format in all cases: in vivo
Aphis gossypii = test: Foliar spray test on Aphis gossypii on cucumber (Test Example 8); settings: 144 h, 500 ppm spray 20 ml/cup, Sir days after spraying, read-out: controlling value
Procedure: On the other hand, cucumber was planted in a polyethylene cup and grown until the first true leaf was spread, and about 20 Aphis gossypii were allowed to parasitize the cucumber. One day after, the test spray solution was sprayed to the cucumber at a ratio of 20 ml/cup. Sir days after spraying, the number of Aphis gossypii was investigated, and the controlling value was calculated according to the following equation. Controlling value (%)={1−(Cb×Tai)/(Cai×Tb)}×100 In the equation, the symbols represent as follows. Cb: the number of insects in a non-treated section before treatment Cai: the number of insects in a non-treated section on observation Tb: the number of insects in a treated section before treatment Tai: the number of insects in a treated section on observation

Blattella germanica = test: Knockdown spray test on Blattella germanica, 0.1% w/v oil formulation (Test Example 2); settings: topical, 0.25 h, active ingredient 0.1% w/v, 1.5 ml sprayed, within 15 minutes, read-out: knockdown rate of the test insects within 15 minutes
Outline: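 Ten German cockroaches (5 males, 5 females) in a mesh-bottomed, butter-walled container were sprayed with 1.5 ml test solution from 60 cm at 0.42 kg/cm^2 inside a chamber.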

Culex pipiens pallens [1] = test: Knockdown spray test on adult Culex pipiens pallens (Test Example 4); settings: topical, 0.25 h, active ingredient 0.1% w/v, 0.5 ml sprayed, within 15 minutes, read-out: knockdown rate of the test insects within 15 minutes
Outline: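 Ten adult mosquitoes in a gauze-covered cup inside a 46×46×70 cm chamber were sprayed with 0.5 ml of test solution from 30 cm at 0.4 kg/cm^2. The cup was removed at once, and knocked-down insects were counted at 2, 5 and 15 min; knockdown rate (%) = knocked-down/tested ×100.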

[2] = tested on: Adoxophyes orana fasciata; test: Spray test on Adoxophyes orana fasciata on apple seedling (Test Example 12); settings: 168 h, first-instar larvae of Adoxophyes orana fasciata on apple seedling, 20 ml spray, seven days after spraying
Procedure: On the other hand, 20 ml of the test spray solution was each sprayed on an apple seedling (28 days after sowing, a tree height of about 15 cm) planted in a plastic cup. After the drug solution sprayed on the apple was air-dried, about 30 first-instar larvae of Adoxophyes orana fasciata were released. Seven days after spraying, the number of surviving Adoxophyes orana fasciata on the apple seedling was investigated, and the controlling value was calculated according to the following equation. Controlling value (%)={1−(Cb×Tai)/(Cai×Tb)}×100 In the equation, the symbols represent as follows. Cb: the number of insects in a non-treated section before treatment Cai: the number of insects in a non-treated section on observation Tb: the number of insects in a treated section before treatment Tai: the number of insects in a treated section on observation

Culex pipiens pallens [3] = test: Larvicidal test on Culex pipiens pallens, eight days (Test Example 7); settings: 192 h; last-instar larvae of Culex pipiens pallens; 3.5 ppm in water; eight days later; read-out: death rate
Outline: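 Twenty last-instar larvae placed in 100 ml ion-exchanged water containing test drug at 3.5 ppm active ingredient. Mortality scored after eight days; death rate = dead/tested × 100.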

Spodoptera litura = test: Foliar spray test on Spodoptera litura on cabbage (Test Example 11); settings: 96 h, fourth instar larvae of Spodoptera litura on cabbage, 500 ppm spray 20 ml/cup, after 4 days, read-out: controlling value
Outline: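 Cabbage is grown in cups to the third–fourth true leaf and sprayed at 20 ml/cup. Once the spray has dried, 10 fourth-instar larvae are released per cup and survivors are counted after 4 days. Controlling value (%) is corrected using pre-treatment and observation counts in treated and untreated sections.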

Plutella xylostella = test: Foliar spray test on Plutella xylostella on cabbage (Test Example 10); settings: 120 h, third instar larvae of Plutella xylostella on cabbage, 500 ppm spray 20 ml/cup, after five days, read-out: controlling value
Outline: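 Cabbage at the third–fourth true-leaf stage sprayed with test solution at 20 ml/cup, dried, then infested with 10 third-instar larvae. Insects counted after five days; controlling value (%) calculated from treated and non-treated counts before treatment and at observation.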

Structure (SMILES): O=C(NCC1CCOCC1)c1cc(COCc2ccc(Cl)c(Cl)c2)on1 [(73), N-(tetrahydropyran-4-ylmethyl)-5-(3,4-dichlorobenzyloxymethyl)isoxazole-3-carboxamide]
- pest or weed control at 500 ppm (Aphis gossypii): ≥ 90%
- pest or weed control at 0.1 % strength (Blattella germanica): ≥ 80%
- pest or weed control at 0.1 % strength (Culex pipiens pallens [1]): ≥ 80%
- pest or weed control at 500 ppm [2]: 100%
- pest or weed control at 3.5 ppm (Culex pipiens pallens [3]): ≥ 90%
- pest or weed control at 500 ppm (Spodoptera litura): ≥ 80%
- pest or weed control at 500 ppm (Plutella xylostella): ≥ 90%
